Test results reported in publication PMC11418212, “Characterization of four structurally diverse inhibitors of SUR2-containing KATP channels” (Channels, 2024).
Where “and” joins values, the source holds several entries; their conditions need not be identical. Equal values may be shown once. Read-outs that look alike come from different tables or passages of the source.

Legend:
Kir6.1/SUR2B [1] = biological target: T1, Kir6.1/SUR2B (Homo sapiens, UniProt O60706); test: Quantitative thallium flux assay, inhibition, stably transfected T-REx-HEK293 cells; format: cell-based
T1 construct: expressed in transfected cells; Kir6.1 tetracycline-inducible, SUR2B constitutive

Kir6.1/SUR2B [2] = biological target: T1, Kir6.1/SUR2B; test: Whole-cell patch clamp electrophysiology, T-Rex-HEK293-Kir6.1/SUR2B cells; format: cell-based; details: 10 µM compound in continued presence of pinacidil (1 μM in Figure 2)
Description: Whole-cell patch clamp electrophysiology experiments were conducted as described previously. Briefly, stably transfected T-Rex-HEK293 cells expressing Kir6.1/SUR2B were seeded at a density of 250,000 cells per 35-mm dish coated with tissue culture-treated polystyrene and incubated at 37°C in a 5% CO2 atmosphere. Whole-cell patch-clamp experiments were initiated 48 h post-seeding. On the day of the experiment, cells were dissociated and seeded onto poly-L-lysine-coated glass coverslips, where they were allowed to recover for at least one hour in a 37°C/5% CO2 incubator prior to the recordings. Patch pipettes with resistances of 2 to 3 MΩ were employed, containing an internal solution composed of 130 mM KCl, 2 mM MgCl2, 1 mM EGTA, 20 mM HEPES-free acid, and 1 mM Na2ADP, adjusted to pH 7.3 with KOH and an osmolarity of 275 mOsmol/kg with sucrose. The extracellular solution consisted of 135 mM NaCl, 5 mM KCl, 2 mM CaCl2, 1 mM MgCl2, 5 mM glucose, and 10 mM HEPES-free acid adjusted to pH 7.4 with NaOH. Test compounds were initially diluted in DMSO before being further diluted into the bath solution, maintaining a final DMSO concentration of less than 0.1% v/v. Recordings of macroscopic currents were conducted in a voltage-clamp setup using an Axopatch 200B Amplifier (Molecular Devices, Sunnyvale, CA), with data sampled at 5 kHz and low-pass filtered at 1 kHz. A ramp protocol was used to generate current–voltage curve relationships. The voltage protocol involved holding the cells at −75 mV, followed by a 200-msec step to −120 mV, a linear ramp to 120 mV over 240 msec at a rate of […], maintaining at 120 mV for 15 msec, and finally stepping back to −120 mV for 100 msec, with this sequence repeated every 5 seconds. […] All data acquisition and analyses were performed using pClamp software version 9.2 (Molecular Devices).
Gold-standard voltage-clamp electrophysiology was used to confirm the inhibitory effects of VU0212387, VU0543336, VU0605768, and VU0544086 on Kir6.1/SUR2B channel activity (Figure 2a–d).
Figure 2. Confirmation of VU0212387, VU0543336, VU0605768, or VU0544086-dependent inhibition of Kir6.1/SUR2B with patch clamp electrophysiology. […] VU compounds tested were (a) VU0212387, (b) VU0543336, (c) VU0605768, or (d) VU0544086. Data mean ± SD current density (n = 3).

[3] = ATP depletion with sodium cyanide and 2-deoxy-glucose, read-out: IC50 Kir6.1/SUR2B, ATP depletion
[4] = channels activated with 10 µM pinacidil, read-out: IC50 Kir6.1/SUR2B, pinacidil activation

T1 sequence (O60706 1-1549 isoform O60706-2, species assumed): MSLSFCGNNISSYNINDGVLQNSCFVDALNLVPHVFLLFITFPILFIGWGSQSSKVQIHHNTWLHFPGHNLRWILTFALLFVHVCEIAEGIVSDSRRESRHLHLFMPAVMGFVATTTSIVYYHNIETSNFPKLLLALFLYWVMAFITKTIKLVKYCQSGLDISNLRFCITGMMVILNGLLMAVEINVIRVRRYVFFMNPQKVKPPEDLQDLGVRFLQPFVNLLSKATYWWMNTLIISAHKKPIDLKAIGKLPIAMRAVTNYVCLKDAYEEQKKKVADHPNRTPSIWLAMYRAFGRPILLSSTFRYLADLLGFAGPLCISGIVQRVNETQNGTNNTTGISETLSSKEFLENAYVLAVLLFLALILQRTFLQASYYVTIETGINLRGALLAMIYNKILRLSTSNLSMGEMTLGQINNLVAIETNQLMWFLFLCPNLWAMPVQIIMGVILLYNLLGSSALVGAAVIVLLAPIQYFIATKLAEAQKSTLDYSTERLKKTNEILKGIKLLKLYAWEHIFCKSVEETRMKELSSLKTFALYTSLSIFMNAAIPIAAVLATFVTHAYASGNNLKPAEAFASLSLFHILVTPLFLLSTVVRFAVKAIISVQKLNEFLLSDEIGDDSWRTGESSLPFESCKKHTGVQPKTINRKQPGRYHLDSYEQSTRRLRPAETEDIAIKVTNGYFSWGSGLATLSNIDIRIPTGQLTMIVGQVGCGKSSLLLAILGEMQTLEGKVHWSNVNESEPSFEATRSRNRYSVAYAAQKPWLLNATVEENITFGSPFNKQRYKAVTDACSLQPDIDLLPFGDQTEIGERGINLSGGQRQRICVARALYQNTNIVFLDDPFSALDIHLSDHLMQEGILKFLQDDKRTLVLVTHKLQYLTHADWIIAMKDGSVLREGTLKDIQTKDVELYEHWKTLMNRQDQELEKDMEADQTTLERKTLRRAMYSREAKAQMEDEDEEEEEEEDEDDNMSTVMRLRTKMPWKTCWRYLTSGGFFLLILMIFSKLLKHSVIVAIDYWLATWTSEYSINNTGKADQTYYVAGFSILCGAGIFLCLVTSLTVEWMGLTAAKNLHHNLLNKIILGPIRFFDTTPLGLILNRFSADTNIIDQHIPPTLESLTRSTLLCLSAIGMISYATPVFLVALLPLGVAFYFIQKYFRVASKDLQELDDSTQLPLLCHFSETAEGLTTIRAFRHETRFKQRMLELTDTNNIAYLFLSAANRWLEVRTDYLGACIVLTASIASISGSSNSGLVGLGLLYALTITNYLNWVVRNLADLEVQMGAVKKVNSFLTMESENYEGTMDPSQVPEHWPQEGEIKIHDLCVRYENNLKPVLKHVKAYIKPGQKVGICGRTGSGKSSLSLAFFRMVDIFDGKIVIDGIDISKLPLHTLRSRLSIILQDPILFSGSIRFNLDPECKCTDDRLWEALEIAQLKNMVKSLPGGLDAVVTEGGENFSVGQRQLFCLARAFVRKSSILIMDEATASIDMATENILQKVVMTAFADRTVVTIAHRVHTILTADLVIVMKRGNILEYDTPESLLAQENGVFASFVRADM
T1 sequence (Q15842 whole entry partner, species assumed): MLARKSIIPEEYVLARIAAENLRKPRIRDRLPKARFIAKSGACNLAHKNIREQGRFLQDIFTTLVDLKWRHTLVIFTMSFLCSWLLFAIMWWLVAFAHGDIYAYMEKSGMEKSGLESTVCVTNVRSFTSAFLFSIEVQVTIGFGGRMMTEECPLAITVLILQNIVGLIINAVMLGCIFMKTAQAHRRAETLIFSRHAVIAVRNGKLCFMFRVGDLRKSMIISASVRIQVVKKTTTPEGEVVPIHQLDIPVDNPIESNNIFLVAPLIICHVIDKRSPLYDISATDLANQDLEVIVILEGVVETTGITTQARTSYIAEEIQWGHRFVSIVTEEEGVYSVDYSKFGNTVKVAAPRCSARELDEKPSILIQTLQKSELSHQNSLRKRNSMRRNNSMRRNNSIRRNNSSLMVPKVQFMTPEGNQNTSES

| Structure (SMILES) | IC50 (Kir6.1/SUR2B [1]; [3]) | IC50 (Kir6.1/SUR2B [1]; [4]) | Inhibition of Kir6.1/SUR2B whole-cell current (Kir6.1/SUR2B [2]) |
| --- | --- | --- | --- |
| O=C(NCC(O)(c1ccccc1)C(F)(F)F)c1ccc(OC(F)(F)F)cc1 (stereo not drawn) [VU0543336, N-(3,3,3-trifluoro-2-hydroxy-2-phenylpropyl)-4-(trifluoromethoxy)benzamide] | 126 nM and 100 nM | 271 nM and 300 nM | complete KATP channel inhibition |
| O=C1c2oc3ccccc3c(=O)c2C(c2cccc(Br)c2)N1CCO (stereo not drawn) [VU0605768, 1-(3-bromophenyl)-2-(2-hydroxyethyl)-1,2-dihydrochromeno[2,3-c]pyrrole-3,9-dione] | 779 nM | 479 nM | complete KATP channel inhibition |
| O=C(NCc1cc(-c2ccncc2)n(C2CCCC2)n1)Nc1cccs1 [VU0544086, 1-((1-cyclopentyl-5-(pyridin-4-yl)-1 H-pyrazol-3-yl)methyl)-3-(thiophen-2-yl)urea] | 1000 nM | 1000 nM | complete KATP channel inhibition |
| c1ccc2[nH]c(CSc3ncnc4c3oc3ccccc34)nc2c1 [VU0212387, 4-(((1 H-benzo[d]imidazol-2-yl)methyl)thio)benzofuro[3,2-d]pyrimidine] | 619 nM and 600 nM | 1400 nM | complete KATP channel inhibition |
